Earlier results as cited in publication PMC11573584, “Thanatin and vinyl sulfide analogues as narrow spectrum antimicrobial peptides that synergise with polymyxin B” (Frontiers in Pharmacology, 2024).
Read-outs that look alike come from different tables or passages of the source. Marks after values point to notes of the source that are not given here.

How the values were obtained:
P. aeruginosa PAO1 = settings: ref Sinha et al. (2022); cited from earlier work
From the text: TABLE 2 Minimum Inhibitory Concentrations (MICs) of thanatin* (5) and analogues (8–11) towards a variety of pathogens. | column: Minimum inhibitory concentration (µM) / 1 (Thanatin) ^a

E. coli ATCC 25922 = settings: non-cation adjusted media, ref Wu et al. (2013); cited from earlier work
From the text: (§1) TABLE 1 Minimum Inhibitory Concentrations (MICs) of thanatin* (5) and similar analogues against a variety of pathogens. | column: Minimum inhibitory concentration (µM) / Thanatin ^a ^, ^b (1); Minimum inhibitory concentration (µM) / S-Thanatin ^a (3) || TABLE 2 Minimum Inhibitory Concentrations (MICs) of thanatin* (5) and analogues (8–11) towards a variety of pathogens. | column: Minimum inhibitory concentration (µM) / 1 (Thanatin) ^a

E. coli BL21 = settings: non-cation adjusted media, ref Sinha et al. (2022); cited from earlier work
From the text: (§2) TABLE 1 Minimum Inhibitory Concentrations (MICs) of thanatin* (5) and similar analogues against a variety of pathogens. | column: Minimum inhibitory concentration (µM) / Thanatin ^a ^, ^b (1); Minimum inhibitory concentration (µM) / Thanatin M21F ^b (4)

P. aeruginosa ATCC 27853 = settings: non-cation adjusted media, ref Sinha et al. (2022); cited from earlier work
From the text: as §2

S. aureus ATCC 25923 = settings: non-cation adjusted media, ref Sinha et al. (2022), cited from earlier work
From the text: as §1, with “Thanatin M21F ^b (4)” for “S-Thanatin ^a (3)”

For Thanatin [Thanatin (1)], the “Minimum inhibitory concentration (MIC)” value (P. aeruginosa PAO1) is listed as 2 µM, the “Minimum inhibitory concentration (MIC)” value (E. coli ATCC 25922) is listed as 3.2 ^a µM and the “Minimum inhibitory concentration (MIC)” value (E. coli BL21) is listed as 0.5 ^b µM. The “Minimum inhibitory concentration (MIC)” value (P. aeruginosa ATCC 27853) was 1 ^b µM, the “Minimum inhibitory concentration (MIC)” value (S. aureus ATCC 25923; listed as 1 (Thanatin)) was 8 µM and the “Minimum inhibitory concentration (MIC)” value (S. aureus ATCC 25923) was 8 ^b µM.
